Source: patent US20080022467A1, “Disazo dyes and their preparation and use” (ILFORD Imaging Switzerland GmbH, priority 2006, published 2008)

Columns and labels:
Type in all cases: physicochemical
[1] = Light stability of printed patches (Weather-Ometer, xenon lamp); parameters: key to Light Stability (Class) on Recording Sheet A / Light Stability (Class) on Recording Sheet B / Light Stability (Class) on Recording Sheet C / Light Stability (Class) on Recording Sheet D / Light Stability (Class) on Recording Sheet E / Light Stability (Class) on Recording Sheet F / Light Stability (Class) on Recording Sheet G: A: excellent; B: good; C: satisfactory; D: unsatisfactory; settings: for Light Stability (Class) on Recording Sheet A: A: HP Printing Paper HPP 1122 (paper), 20° C., 50% relative humidity; for Light Stability (Class) on Recording Sheet A / Light Stability (Class) on Recording Sheet B / Light Stability (Class) on Recording Sheet C / Light Stability (Class) on Recording Sheet D / Light Stability (Class) on Recording Sheet E / Light Stability (Class) on Recording Sheet F / Light Stability (Class) on Recording Sheet G: 20 megalux hours; for Light Stability (Class) on Recording Sheet B: B: HP Premium Plus (polymer based); for Light Stability (Class) on Recording Sheet C: C: ILFORD Galerie Smooth Glossy (nanoporous); for Light Stability (Class) on Recording Sheet D: D: ILFORD Printasia Premium Photo Glossy Paper (nanoporous); for Light Stability (Class) on Recording Sheet E: E: ILFORD Galerie Classic Gloss Paper (polymer based); for Light Stability (Class) on Recording Sheet F: F: EPSON Premium Glossy Photo Paper (nanoporous); for Light Stability (Class) on Recording Sheet G: G: CANON Photo Paper Pro PR-101 (nanoporous); for light stability on all recording sheets (in words): summary of Table 4
Protocol: (§1) The present invention, as far as it relates to recording liquids, is illustrated by the following examples using the disazo dyes of Table 1 according to the invention and dyes representing the state of the art. For each dye, 100 g of recording liquid were prepared by heating the necessary amount of dye (2.0 g-5.0 g), 6.0 g of ethylene glycol, 3.0 g of propylene-1,2-glycol, 3.0 g of 1-methyl-2-pyrrolidone, 0.3 g of an aqueous solution (50%) of Olin® 10G (available from Arch Chemicals Inc., Norwalk, USA), 0.3 g of Surfinol® 465 (available from Air Products and Chemicals Inc., Allentown, USA) and 0.1 g of Mergal® K 10N (available from Riedel-de-Haën, Seelze, Germany) together with water at a temperature of 50° C. under stirring for approximately 1 hour. The resulting solution was cooled down to a temperature of 20° C., its value of pH was adjusted to 7.5 and the solution was passed through a Millipore® filter of 0.3 μm pore diameter. The dye quantity was adjusted in such a way that the optical density of the printed image was similar for all dyes.
(§2) Homogeneously colored square patches with an approximate density of 1.40 were then printed, using these recording liquids, with an ink jet printer Canon BJC 8500 onto the following recording sheets: • A: HP Printing Paper HPP 1122 (paper) • B: HP Premium Plus (polymer based recording sheet) • C: ILFORD Galerie Smooth Glossy (nanoporous recording sheet) • D: ILFORD Printasia Premium Photo Glossy Paper (nanoporous recording sheet) • E: ILFORD Galerie Classic Gloss Paper (polymer based recording sheet) • F: EPSON Premium Glossy Photo Paper (nanoporous recording sheet) • G: CANON Photo Paper Pro PR-101 (nanoporous recording sheet)
The printed samples were irradiated using a Weather-Ometer® Ci35A (available from Atlas Material Testing Technology, Chicago, USA) with a 6500 W xenon lamp at a temperature of 20° C. and relative humidity of 50% until an illumination of 20 megalux hours was reached. The density loss was measured with a densitometer Spectrolino®. The percent density loss of initial density gives an indication of the light stability of the dyes on the printed recording sheet.

[2] = Stability against degradation by ozone of printed patches; parameters: key: A: excellent; B: good; C: satisfactory; D: unsatisfactory; settings: ozone 1 ppm, 30° C., 50% relative humidity; for Resistance against Degradation by Ozone (Class) on Recording Sheet C: C: ILFORD Galerie Smooth Glossy (nanoporous); for Resistance against Degradation by Ozone (Class) on Recording Sheet D: D: ILFORD Printasia Premium Photo Glossy Paper (nanoporous); for Resistance against Degradation by Ozone (Class) on Recording Sheet F: F: EPSON Premium Glossy Photo Paper (nanoporous); for Resistance against Degradation by Ozone (Class) on Recording Sheet G: G: CANON Photo Paper Pro PR-101 (nanoporous)
Protocol: as §1, §2
The optical density of the colored square patches was measured with a Spectrolino® densitometer. Afterwards, the printed samples were stored for a predetermined time (for example 48 hours) in an ozone chamber, model 903 (available from Satra/Hampden, Great Britain) at a temperature of 30° C., a relative humidity of the air of 50% and an ozone concentration of 1 ppm at a velocity of the circulating, ozone containing air of 13 mm/s. After storage, the samples were re-measured. The density differences of these two measurements, expressed as per cent of the initial density, are an indication of the amount of dye loss due to the exposure to ozone.

[3] = Dye solubility (saturated aqueous solution, spectrophotometric); settings: summary of Table 2
Protocol: Dye solubility was determined with a spectrophotometer in the UV and in the visible spectral region. The spectra of the pure disazo dyes according to the invention were measured in a buffered aqueous solution at a value of pH of 7.0. Saturated aqueous solutions of the dyes were prepared at a temperature of 50° C. These solutions were afterwards cooled down to room temperature and diluted for the measurements after a waiting time of 24 hours in such a way that the absorption at the absorption maximum was between 0.8 and 1.5. This dilution factor allows the calculation of dye solubility.

Compound | Light Stability (Class) on Recording Sheet A [1] | Light Stability (Class) on Recording Sheet B [1] | Light Stability (Class) on Recording Sheet C [1] | Light Stability (Class) on Recording Sheet D [1] | Light Stability (Class) on Recording Sheet E [1] | Light Stability (Class) on Recording Sheet F [1] | Light Stability (Class) on Recording Sheet G [1] | light stability on all recording sheets (in words) [1] | Resistance against Degradation by Ozone (Class) on Recording Sheet C [2] | Resistance against Degradation by Ozone (Class) on Recording Sheet D [2] | Resistance against Degradation by Ozone (Class) on Recording Sheet F [2] | Resistance against Degradation by Ozone (Class) on Recording Sheet G [2] | solubility (in words) [3]
O=S(=O)([O-])c1cc(/N=N/c2ccc(Nc3nc(NCCO)nc(Nc4ccc(/N=N/c5cc(S(=O)(=O)[O-])c6cccc(S(=O)(=O)[O-])c6c5)cc4)n3)cc2)cc2c(S(=O)(=O)[O-])cccc12.[Na+].[Na+].[Na+].[Na+] [Dye No. I, reference compound] | A | A | B | B | B | A | B | excellent or good light stability | A | B | A | A | 
Cc1cc(Nc2nc(NCCO)nc(Nc3ccc(/N=N/c4cc(S(=O)(=O)[O-])c5cccc(S(=O)(=O)[O-])c5c4)c(C)c3)n2)ccc1/N=N/c1cc(S(=O)(=O)[O-])c2cccc(S(=O)(=O)[O-])c2c1.[Na+].[Na+].[Na+].[Na+] [Dye No. II, Direct Yellow 86, reference compound] | B | D | B | B | B | A | A | satisfactory or even unsatisfactory light stability | A | B | A | A | 
O=S(=O)([O-])c1cc(/N=N/c2ccc(Nc3nc(NCCCN4CCOCC4)nc(Nc4ccc(/N=N/c5cc(S(=O)(=O)[O-])c6cccc(S(=O)(=O)[O-])c6c5)cc4)n3)cc2)cc2c(S(=O)(=O)[O-])cccc12.[Na+].[Na+].[Na+].[Na+] [Dye No. IV, reference compound] | C | A | D | C | C | B | B | satisfactory or even unsatisfactory light stability | A | B | A | A | equally high water solubility
Direct Yellow 132 [Dye No. III, reference compound] | C | A | B | B | B | B | B | satisfactory or even unsatisfactory light stability | D | B | C | C | 
